Data from the supplement of paper PMC10307832.

Columns and labels:
Test in all cases: relative viability (nuclei count vs DMSO), 5 days (fraction); higher = more cells survive
RU-SKI 43 + Palbociclib = compound: CC[C@@H](C)CNCC(=O)N1CCC2=C([C@@H]1COC3=CC=CC(=C3)C)C=CS2 [RU-SKI 43] + CC(=O)c1c(C)c2cnc(Nc3ccc(N4CCNCC4)cn3)nc2n(C2CCCC2)c1=O [Palbociclib] (partner 0.5 µM)
Summary of the method: (§1)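 For relative viability, nuclei counts in treated wells were divided by those in vehicle wells. Lung cancer cell lines had been pin-tool dosed in 1536-well plates the day after seeding and cultured for 5 days, then fixed and stained in one step (final 0.05% Triton X-100, 1% formaldehyde, 1 ug/ml Hoechst) and imaged at 4×. Doses were one drug alone or a fixed anchor-drug dose plus five library-drug doses (not always all listed) in √10 steps, and values are duplicate-plate medians.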

Irinotecan + Phenformin = compound: CCc1c2c(nc3ccc(OC(=O)N4CCC(N5CCCCC5)CC4)cc13)-c1cc3c(c(=O)n1C2)COC(=O)[C@]3(O)CC [Irinotecan] + N=C(N)NC(=N)NCCc1ccccc1 [Phenformin] (partner 250 µM)
Summary of the method: as §1

Irinotecan + Olaparib = compound: CCc1c2c(nc3ccc(OC(=O)N4CCC(N5CCCCC5)CC4)cc13)-c1cc3c(c(=O)n1C2)COC(=O)[C@]3(O)CC [Irinotecan] + O=C(c1cc(Cc2n[nH]c(=O)c3ccccc23)ccc1F)N1CCN(C(=O)C2CC2)CC1 [Olaparib] (partner 8 µM)
Summary of the method: as §1

MK-8033 + Phenformin = compound: Cn1cc(-c2cnc3ccc4ccc(CS(=O)(=O)NCc5ccccn5)cc4c(=O)c3c2)cn1 [MK-8033] + N=C(N)NC(=N)NCCc1ccccc1 [Phenformin] (partner 250 µM)
Summary of the method: as §1

Cell Line | relative viability (RU-SKI 43 + Palbociclib; first compound 0.1 µM) | relative viability (RU-SKI 43 + Palbociclib; first compound 0.3162 µM) | relative viability (RU-SKI 43 + Palbociclib; first compound 1 µM) | relative viability (RU-SKI 43 + Palbociclib; first compound 3.162 µM) | relative viability (RU-SKI 43 + Palbociclib; first compound 10 µM) | relative viability (Irinotecan + Phenformin; first compound 0.6325 µM) | relative viability (Irinotecan + Phenformin; first compound 2 µM) | relative viability (Irinotecan + Phenformin; first compound 6.325 µM) | relative viability (Irinotecan + Phenformin; first compound 20 µM) | relative viability (Irinotecan + Olaparib; first compound 0.6325 µM) | relative viability (Irinotecan + Olaparib; first compound 2 µM) | relative viability (Irinotecan + Olaparib; first compound 6.325 µM) | relative viability (Irinotecan + Olaparib; first compound 20 µM) | relative viability (MK-8033 + Phenformin; first compound 0.02 µM) | relative viability (MK-8033 + Phenformin; first compound 0.06325 µM) | relative viability (MK-8033 + Phenformin; first compound 0.2 µM) | relative viability (MK-8033 + Phenformin; first compound 0.6325 µM) | relative viability (MK-8033 + Phenformin; first compound 2 µM)
NCI-H2023 | 0.383 | 0.385 | 0.444 | 0.451 | 0.311 | 0.415 | 0.391 | 0.178 | 0.0825 | 0.302 | 0.225 | 0.14 | 0.073 | 0.41 | 0.348 | 0.348 | 0.356 | 0.306
NCI-H1563 | – | – | – | – | – | 0.634 | 0.691 | 0.608 | 0.38 | – | – | – | – | 0.711 | 0.669 | 0.602 | 0.679 | 0.642
LCLC-103H | 0.525 | 0.453 | 0.471 | 0.495 | 0.496 | 0.344 | 0.358 | 0.256 | 0.321 | 0.469 | 0.483 | 0.407 | 0.444 | 0.378 | 0.334 | 0.314 | 0.355 | 0.396
HCC-15 | 0.706 | 0.883 | 0.76 | 0.753 | 0.665 | – | 0.331 | 0.183 | 0.12 | 0.213 | 0.279 | 0.202 | 0.146 | 0.511 | 0.467 | 0.421 | 0.45 | 0.482
NCI-H838 | 0.213 | 0.233 | 0.225 | 0.239 | 0.188 | 0.661 | 0.587 | 0.312 | 0.202 | 0.632 | 0.441 | 0.238 | 0.18 | 0.622 | 0.572 | 0.524 | 0.555 | 0.543
NCI-H2009 | 0.181 | 0.214 | 0.219 | 0.229 | 0.194 | 0.421 | 0.411 | 0.232 | 0.167 | 0.508 | 0.287 | 0.194 | 0.128 | 0.524 | 0.476 | 0.456 | 0.482 | 0.463
NCI-H2228 | 0.735 | 1.05 | 0.892 | 0.535 | 0.737 | 0.311 | 0.347 | 0.336 | 0.27 | 0.496 | 0.486 | 0.451 | 0.486 | 0.399 | 0.287 | 0.345 | 0.294 | 0.299
NCI-H460 | 0.222 | 0.165 | 0.183 | 0.199 | 0.128 | 0.21 | 0.272 | 0.0796 | 0.0368 | – | 0.214 | 0.0942 | 0.125 | 0.543 | 0.486 | 0.506 | 0.542 | 0.491
NCI-H522 | 1.22 | 1.08 | 1.18 | 1.29 | 0.977 | 0.578 | 0.567 | 0.514 | 0.564 | 0.493 | 0.532 | 0.453 | 0.525 | 0.645 | 0.7 | 0.707 | 0.54 | 0.699
NCI-H1703 | – | – | – | – | – | – | – | – | – | 0.512 | 0.375 | 0.169 | 0.164 | – | – | – | – | –
NCI-H1793 | 0.331 | 0.222 | 0.326 | 0.336 | 0.27 | – | 0.347 | 0.263 | 0.185 | – | 0.528 | 0.173 | 0.209 | 0.383 | 0.284 | 0.316 | 0.394 | 0.293
NCI-H596 | – | – | – | – | – | 0.699 | 0.83 | 0.784 | 0.745 | 0.638 | 0.707 | 0.64 | 0.828 | 0.854 | 0.662 | 0.741 | 0.657 | 0.627
NCI-H2347 | 0.434 | 0.329 | 0.441 | 0.403 | 0.394 | 0.284 | 0.263 | 0.298 | 0.246 | 0.471 | 0.491 | 0.379 | 0.555 | 0.442 | 0.37 | 0.57 | 0.59 | 0.428
201T | 0.367 | 0.329 | 0.368 | 0.361 | 0.361 | – | 0.489 | 0.361 | 0.333 | 0.53 | 0.312 | 0.231 | 0.264 | 0.499 | 0.448 | 0.39 | 0.436 | 0.469
NCI-H1650 | 0.375 | 0.346 | 0.338 | 0.351 | 0.302 | – | 0.418 | 0.34 | 0.196 | 0.722 | 0.436 | 0.296 | 0.139 | 0.412 | 0.285 | 0.38 | 0.441 | 0.399
NCI-H1734 | 0.351 | 0.323 | 0.358 | 0.325 | 0.298 | – | 0.357 | 0.244 | 0.17 | – | 0.184 | 0.143 | 0.179 | 0.435 | 0.338 | 0.366 | 0.361 | 0.37
SW 1573 | 0.37 | 0.453 | 0.397 | 0.375 | 0.283 | 0.32 | 0.425 | 0.248 | 0.146 | 0.267 | 0.239 | 0.157 | 0.121 | 0.374 | 0.311 | 0.367 | 0.326 | 0.249
NCI-H1993 | 0.611 | 0.727 | 0.697 | 0.748 | 0.613 | 0.536 | 0.503 | 0.531 | 0.551 | – | 0.601 | 0.552 | 0.585 | 0.591 | 0.469 | 0.497 | 0.537 | 0.488
NCI-H1648 | 0.284 | 0.26 | 0.257 | 0.304 | 0.271 | – | – | – | – | 0.525 | 0.388 | 0.35 | 0.276 | – | – | – | – | –
NCI-H1299 | – | – | – | – | – | – | – | – | – | 0.539 | 0.478 | 0.337 | 0.207 | – | – | – | – | –
IA-LM | – | – | – | – | – | – | – | – | – | 0.537 | 0.177 | 0.166 | 0.0811 | – | – | – | – | –
A549 | – | – | – | – | – | – | 0.198 | 0.113 | 0.0897 | 0.073 | 0.186 | 0.0779 | 0.0719 | 0.221 | 0.157 | 0.172 | 0.148 | 0.193
